From US10653674B2, “Multisubstituted aromatic compounds as inhibitors of thrombin” (VERSEON CORPORATION, priority 2010, dated 2020)

Assays:
Human thrombin = molecular target: T1, Human thrombin (Homo sapiens, UniProt P00734); experiment: Thrombin protease inhibition assay, chromogenic substrate S-2238; format: biochemical; settings: inhibition of the protease activity of thrombin, Table A
T1 construct: purchased Haematologic Technologies Inc
Description: Compounds described herein can be assayed, by a variety of methods known in the art and described herein, for inhibition of biological activity, e.g., protease activity, of a variety of proteins, e.g., thrombin.
The thrombin activity reported herein (e.g., Table A) was obtained as follows. […] Thrombin was assayed in buffer containing 0.05 M Tris (pH 7.4), 0.015 M NaCl and 0.01% PEG-8000. The final concentration of enzyme used was 3 nM thrombin. […] All assays were performed in 96-well microtiter plates at room temperature (RT). […] Inhibitor IC50 values were determined by adding test compound as ten point, three-fold serial dilutions in buffer solution, as known in the art. The plate was read at 10 minutes after substrate addition. The IC50 was calculated by plotting the percent (%) inhibition against compound concentration and fitting the data to a constrained four parameter sigmoidal curve, as known in the art.

malignant breast tumors = settings: cited from earlier work

## CNC(=O)c1n[nH]c(C(=O)Nc2ccccc2Cl)n1 [Cmpd 187, 5-C-(2-chlorobenzene)-3-N-methyl-1H-1,2,4-triazole-3,5-dicarboxamide]
Human thrombin
  IC50: > 1000 nM

## CCCCCCOC(=O)NC(=N)c1ccc(NCc2nc3cc(C(=O)N(CCC(=O)OCC)c4ccccn4)ccc3n2C)cc1 [dabigatran etexilate]
Malignant breast tumors; at 4 weeks, treated mice
  reduction in tumor volume: 50%
Malignant breast tumors; at 4 weeks
  weight loss in treated mice: no weight loss
Malignant breast tumors; mouse, in vivo
  reduction of tumor cells in the blood and liver micrometastases: 50-60%

## Fc1ccc(CNc2nc(-c3cccnc3)n[nH]2)cc1 [Cmpd 4]
other
  melting point: 185 to 186 °C

## CN(C)C(=O)c1n[nH]c(C(=O)Nc2ccccc2Cl)n1 [Cmpd 186, 5-C-(2-chlorobenzene)-3-N,3-N-dimethyl-1H-1,2,4-triazole-3,5-dicarboxamide]
Human thrombin
  IC50: > 1000 nM
